Results from the supplement of paper PMC11451515.

Test system: SEM cells
Assay: cell viability relative to DMSO control; higher = less cytotoxic
Details: 48 h
Outline: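 NOMO1 or SEM (500 cells/well) or P12-Ichikawa (1000 cells/well) leukemia cells were adapted for at least four passages in each medium. They were seeded in 1536-well plates (5 μl) and pin-dosed with library compounds in DMSO over an 11-point threefold series, 47 μM to 0.79 nM. CellTiter-Glo One luminescence was read after 48 h at 37°C. Viability is the per-plate percentage relative to DMSO wells, with cell-free wells as background.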

[1] = HPLM + 10% dialyzed FBS, 0.000781 µM
[2] = HPLM + 10% dialyzed FBS, 0.00234 µM
[3] = HPLM + 10% dialyzed FBS, 0.00702 µM
[4] = HPLM + 10% dialyzed FBS, 0.0211 µM
[5] = HPLM + 10% dialyzed FBS, 0.0632 µM
[6] = HPLM + 10% dialyzed FBS, 0.19 µM
[7] = HPLM + 10% dialyzed FBS, 0.569 µM
[8] = HPLM + 10% dialyzed FBS, 1.71 µM
[9] = HPLM + 10% dialyzed FBS, 5.12 µM
[10] = HPLM + 10% dialyzed FBS, 15.4 µM
[11] = HPLM + 10% dialyzed FBS, 46.1 µM
[12] = RPMI 5 mM glucose + 10% FBS, 0.000781 µM
[13] = RPMI 5 mM glucose + 10% FBS, 0.00234 µM
[14] = RPMI 5 mM glucose + 10% FBS, 0.00702 µM
[15] = RPMI 5 mM glucose + 10% FBS, 0.0211 µM
[16] = RPMI 5 mM glucose + 10% FBS, 0.0632 µM
[17] = RPMI 5 mM glucose + 10% FBS, 0.19 µM
[18] = RPMI 5 mM glucose + 10% FBS, 0.569 µM
[19] = RPMI 5 mM glucose + 10% FBS, 1.71 µM
[20] = RPMI 5 mM glucose + 10% FBS, 5.12 µM
[21] = RPMI 5 mM glucose + 10% FBS, 15.4 µM
[22] = RPMI 5 mM glucose + 10% FBS, 46.1 µM
[23] = RPMI 5 mM glucose + 10% dialyzed FBS, 0.000781 µM
[24] = RPMI 5 mM glucose + 10% dialyzed FBS, 0.00234 µM
[25] = RPMI 5 mM glucose + 10% dialyzed FBS, 0.00702 µM
[26] = RPMI 5 mM glucose + 10% dialyzed FBS, 0.0211 µM
[27] = RPMI 5 mM glucose + 10% dialyzed FBS, 0.0632 µM
[28] = RPMI 5 mM glucose + 10% dialyzed FBS, 0.19 µM
[29] = RPMI 5 mM glucose + 10% dialyzed FBS, 0.569 µM
[30] = RPMI 5 mM glucose + 10% dialyzed FBS, 1.71 µM
[31] = RPMI 5 mM glucose + 10% dialyzed FBS, 5.12 µM
[32] = RPMI 5 mM glucose + 10% dialyzed FBS, 15.4 µM
[33] = RPMI 5 mM glucose + 10% dialyzed FBS, 46.1 µM

SMILES | cell viability [1] [%] | cell viability [2] [%] | cell viability [3] [%] | cell viability [4] [%] | cell viability [5] [%] | cell viability [6] [%] | cell viability [7] [%] | cell viability [8] [%] | cell viability [9] [%] | cell viability [10] [%] | cell viability [11] [%] | cell viability [12] [%] | cell viability [13] [%] | cell viability [14] [%] | cell viability [15] [%] | cell viability [16] [%] | cell viability [17] [%] | cell viability [18] [%] | cell viability [19] [%] | cell viability [20] [%] | cell viability [21] [%] | cell viability [22] [%] | cell viability [23] [%] | cell viability [24] [%] | cell viability [25] [%] | cell viability [26] [%] | cell viability [27] [%] | cell viability [28] [%] | cell viability [29] [%] | cell viability [30] [%] | cell viability [31] [%] | cell viability [32] [%] | cell viability [33] [%]
C#CCN[C@@H]1CCc2ccccc21.CS(=O)(=O)O | 105 | 101 | 83.6 | 86.2 | 110 | 108 | 107 | 106 | 41.2 | 91.7 | 89.2 | 103 | 112 | 56.8 | 97.3 | 112 | 105 | 106 | 100 | 24.4 | 96 | 95.2 | 107 | 116 | 74.2 | 82.9 | 99.7 | 105 | 99.8 | 106 | 42.8 | 110 | 86.3
O.O.CCN1CCN(C(=O)N[C@H](C(=O)N[C@H]2[C@@H]3SC\C(=C(/N3C2=O)C(O)=O)CSC4=NN=N[N]4C)C5=CC=C(O)C=C5)C(=O)C1=O | 81 | 81.3 | 90.4 | 20.6 | 107 | 95.4 | 104 | 101 | 103 | 98.6 | 105 | 99.1 | 75.9 | 99.4 | 15.1 | 95.3 | 104 | 107 | 94.5 | 90.9 | 117 | 98.8 | 88.1 | 80.5 | 97.6 | 17.3 | 91.6 | 106 | 101 | 99.7 | 104 | 93.4 | 103
OCCn1cc(-c2cnc3nnn(Cc4ccc5ncccc5c4)c3n2)cn1 | 102 | 107 | 99.5 | 98.1 | 97.9 | 89.3 | 89.5 | 91.5 | 85.3 | 72.1 | 38.5 | 122 | 138 | 124 | 133 | 120 | 116 | 109 | 90.7 | 82.1 | 73.9 | 26.6 | 84.6 | 97.9 | 102 | 108 | 107 | 106 | 118 | 97.3 | 82 | 60.5 | 33.4
C[C@H]1O[C@H](C[C@H](O)[C@@H]1O)O[C@H]2[C@@H](O)C[C@@H](O[C@@H]2C)O[C@H]3[C@@H](O)C[C@@H](O[C@@H]3C)O[C@H]4CC[C@@]5(C)[C@H](CC[C@@H]6[C@@H]5C[C@@H](O)[C@]7(C)[C@H](CC[C@]67O)C/8=C/C(=O)OC8)C4 | 117 | 106 | 122 | 123 | 30.4 | 15.2 | 11 | 7.74 | 7.71 | 8.32 | 6.4 | – | – | – | – | – | – | – | – | – | – | – | – | – | – | – | – | – | – | – | – | – | –
CN1CCN(CCCN2c3ccccc3Sc3ccc(C(F)(F)F)cc32)CC1 | 74.1 | 85.4 | 88.1 | 103 | 97.3 | 101 | 106 | 105 | 107 | 102 | 106 | 83.1 | 91.4 | 90.7 | 93.9 | 94.4 | 100 | 101 | 99.4 | 98.6 | 105 | 101 | 90.6 | 94.2 | 89.9 | 94.4 | 102 | 102 | 92.7 | 104 | 107 | 112 | 86.8
Cc1onc(-c2ccccc2)c1C(=O)N[C@@H]1C(=O)N2[C@@H]1SC(C)(C)[C@@H]2C(=O)[O-].[Na+] | 85.9 | 75.7 | 87.2 | 84 | 86.5 | 75.3 | 89.6 | 93.4 | 85.2 | 82.1 | 80.2 | 109 | 94.2 | 105 | 114 | 108 | 109 | 114 | 86.4 | 102 | 132 | 103 | 115 | 104 | 111 | 113 | 133 | 112 | 118 | 107 | 111 | 108 | 100
CNC(=O)Nc1ccc(-c2nc(N3CC4CCC(C3)O4)c3cnn(C4CCC5(CC4)OCCO5)c3n2)cc1 | 109 | 106 | 97.8 | 83.9 | 73.8 | 53.6 | 58.1 | 53 | 45.9 | 34.3 | 36.9 | 76.6 | 77.9 | 65.6 | 51 | 43.2 | 36.8 | 40.1 | 34 | 25.3 | 22.9 | 14.5 | 105 | 106 | 88.7 | 80.7 | 71.6 | 56.2 | 59.4 | 53.9 | 39.6 | 31.3 | 41.4
